Values after ≈ are worked out from the molar mass of the structure shown. Read-outs that look alike come from different tables or passages of the source. Residues, ends and D or L forms follow the SMILES beside them.
Legend:
S. typhimurium CVCC533 = type: cell-based, Salmonella typhimurium; settings: repeated three times; for MBC: lowest concentration giving 99.9% reduction of the inoculum; for MIC: microtiter broth dilution, 10^5 CFU/mL, 37 °C, 16 ~ 18 h
Experimental: The minimum inhibitory concentration (MIC) and minimum bactericidal concentration (MBC) of peptides were determined by the microtiter broth dilution method according to Clinical and Laboratory Standards Institute (CLSI) guidelines. […] PBS was used as the negative control. […] The MBC value was calculated as the lowest concentration of peptides resulting in a 99.9% reduction of the original inoculum. All experiments were repeated three times.

MDR E. coli CVCC195 [1] = experiment: Mouse survival, preventive treatment before MDR E. coli challenge; type: in vivo; settings: 7 μmol/kg i.p. at 0 h, MDR E. coli CVCC195 0.5 × 10^9 CFU/mouse i.p. at 6 h; five mice/group
Experimental: A sepsis mouse model established in our laboratory was used to evaluate the prevention effect of peptides. […] The survival rate of mice was recorded for 7 days. The mice injected with saline were used as negative control.

MDR E. coli [2] = experiment: Antibacterial activity after incubation in human serum (inhibition assay); type: cell-based, Escherichia coli; settings: Supplementary Fig. 2c source data, mean
Experimental: Serum stability of R7 and its parent-L7 was tested as previously described with minor modifications[46],[53]. […] The samples were incubated at 4 °C for 15 min and centrifuged for 10 min at 12,000 rpm. The supernatants were analyzed by RP-HPLC or inhibition zone method. Moreover, after incubation in serum for 2 h, R7 was analyzed by matrix assisted laser desorption/ionization-time of flight mass spectrometry (MALDI-TOF MS) and high-performance liquid chromatography-mass spectrometry (HPLC-MS), respectively.
Supplementary Figure 2. Serum stability and release of peptides in human serum. a Detection of the peak area change of peptides in serum by RP-HPLC. b The remaining rate of peptides in bovine serum. c The antibacterial activity of peptides against MDR E. coli in serum detected by an inhibition assay. d The MALDI-TOF mass spectrometry of R7 after incubation in bovine serum for 2 h. The experiments were repeated three times. Data in a and d is representative of three biological replicates.
The results are given as the mean ± SD of three independent experiments in b and c. Different lower-case letters indicate a significant difference between the two groups (p<0.05).
(1 picture or pasted object on this page, not shown here)

MDR E. coli [3] = type: in vivo, mouse; set-up: key to therapeutic efficacy, survival, single-animal event: 1 represents a mouse death; 0 represents no death; settings: for therapeutic efficacy, survival, single-animal event: Supplementary Fig. 3a source data, MDR E. coli challenge, one cell per mouse
Experimental: Supplementary Figure 3. Therapeutic eﬀicacy of cleavable chimeric peptide R7 in the mice
challenged with MDR E. coli or LPS After the intraperitoneal injection with MDR E. coli (a) or LPS
(b) at a concentration of LD100, the mice were treated with 7 μmol/kg R7 at 0.5 h and 8 h, respectively.
The mouse survival was recorded for 7 d. The mice injected with MDR E. coli/LPS or saline were used

LPS = experiment: Intestinal alkaline phosphatase (IAP) activity in duodenum, LPS-challenged mice; type: in vivo, mouse; set-up: IAP levels in mice: unit not given beside the values; settings: for IAP levels in mice: Fig. 7f source data, peptide + LPS, mean
Experimental: After E. coli or LPS challenge, the mice were sacrificed at 12 h and 24 h, respectively, and the sera were collected to detect inflammatory cytokines (such as tumor necrosis factor-α (TNF-α), interleukin-6 (IL-6), interleukin-1β (IL-1β), and interleukin-10 (IL-10)) using the enzyme linked immunosorbent assay (ELISA) kits. To evaluate the specific activity of intestinal alkaline phosphatase (IAP), a 2 cm segment of duodenum was rapidly intercepted from the mice and homogenized; the IAP levels in the supernatant were detected by ELISA. In addition, the lungs were collected from the mice infected by E. coli after 12 and 24 h, respectively and were homogenized in sterile PBS for the bacterial counts assay.

MDR E. coli CVCC195 [4] = experiment: Infiltrated inflammatory cells in lung sections, E. coli-challenged mice; type: in vivo, mouse; settings: Fig. 6c source data, peptide + E. coli, mean
Experimental: Fig. 6 Effects of cleavable chimeric peptide R7 on lung injury in mice. […] Lung injury was analyzed histologically at 12 h or 24 h. a Histopathological images of lung sections after staining with hematoxylin and eosin (H&E). Images are presented at a magnification of 100×. b Pathological analysis of lung. Lung injury involves in inflammation (such as peribronchial, perivascular, intrabronchial, and pulmonary interstitial one), bronchial exudate, and alveolar septal thickening, respectively. The specific degree of lung injury of each mouse is assessed by Score 0 (asymptomatic), Score 1 (mild), Score 2 (moderate), and Score 3 (severe), respectively. c The number of counted infiltrated inflammatory cells within processed lung sections from a. Data represent the mean ± SD of three independent experiments. Different lower-case letters indicate a significant difference between the two groups (p < 0.05).
Lung tissues were taken at 12 h and 24 h, respectively, washed with PBS, and fixed in 4% paraformaldehyde overnight. After dehydration in different concentrations of ethanol (including 75%, 85%, 90%, and 95%, respectively), the tissues were embedded in paraffin, sliced, and stained with hematoxylin. Observation was performed under a light microscope. The mice only injected with E. coli, LPS or PBS was regard as the negative or blank control.

mouse red blood cells = experiment: Hemolytic activity; type: cell-based
Experimental: Blood was collected from the eyeballs of specific pathogen-free (SPF) ICR female mice (6-week-old) with an anticoagulant tube and centrifuged for 10 min (4 °C, 1500 rpm). After washing twice with 0.9% physiological saline, red blood cells were diluted to 8% suspension and added into the Eppendorf tube (100 μL); 2-fold peptide solutions dissolved in 0.9% physiological saline (100 μL) were then added into the tube, incubated at 37 °C for 1 h, and centrifugated at 4 °C for 5 min. The supernatant was pipetted into a 96-well plate and the UV absorbance was measured at 540 nm using a microplate reader. 0.1% Triton X-100 and physiological saline were used as positive and negative control, respectively. The hemolysis rate is calculated as follows: Hemolysis (%) = [(Abspeptide-Abssaline) / (Abs0.1% Triton X-100- Abssaline)] × 100[13].

[5] = incubation in human serum 0.5 h
[6] = concentration 1 μg/ml (as headed), 37 °C, 1 h, absorbance 540 nm, 0.1% Triton X-100 = 100, mean, n = 3
[7] = concentration 2 μg/ml (as headed), 37 °C, 1 h, absorbance 540 nm, mean, n = 3
[8] = concentration 4 μg/ml (as headed), 37 °C, 1 h, absorbance 540 nm, mean, n = 3
[9] = concentration 8 μg/ml (as headed), 37 °C, 1 h, absorbance 540 nm, mean, n = 3
[10] = concentration 16 μg/ml (as headed), 37 °C, 1 h, absorbance 540 nm, mean, n = 3
[11] = concentration 32 μg/ml (as headed), 37 °C, 1 h, absorbance 540 nm, mean, n = 3
[12] = concentration 64 μg/ml (as headed), 37 °C, 1 h, absorbance 540 nm, mean, n = 3
[13] = concentration 128 μg/ml (as headed), 37 °C, 1 h, absorbance 540 nm, mean, n = 3

CSCC[C@H](NC(=O)[C@H](CCCNC(=N)N)NC(=O)[C@H](Cc1c[nH]c2ccccc12)NC(=O)[C@H](C)NC(=O)[C@H](Cc1c[nH]c2ccccc12)NC(=O)[C@H](CCCNC(=N)N)NC(=O)[C@H](Cc1c[nH]c2ccccc12)NC(=O)[C@H](C)NC(=O)[C@H](CCCCN)NC(=O)[C@@H](N)Cc1ccccc1)C(=O)N[C@@H](CCCCN)C(=O)N[C@@H](CCCCN)C(=O)N[C@@H](CC(C)C)C(=O)N[C@@H](C)C(=O)N[C@@H](C)C(=O)N1CCC[C@H]1C(=O)N[C@@H](CO)C(=O)O [L7] (H-FKAWRWAWRMKKLAAPS-OH)
MBC (S. typhimurium CVCC533): 18.1 µM (≈ 38.6 µg/mL) | MIC (S. typhimurium CVCC533): 18.1 µM (≈ 38.6 µg/mL) | mouse survival at 7 days (MDR E. coli CVCC195 [1]): 60% | antibacterial activity against MDR E. coli in human serum detected by an inhibition assay (MDR E. coli [2]; incubation in human serum 0 h): 0.99 | antibacterial activity against MDR E. coli in human serum detected by an inhibition assay (MDR E. coli [2]; [5]): 0.9833 | antibacterial activity against MDR E. coli in human serum detected by an inhibition assay (MDR E. coli [2]; incubation in human serum 1 h): 0.9833 | antibacterial activity against MDR E. coli in human serum detected by an inhibition assay (MDR E. coli [2]; incubation in human serum 2 h): 0.8667 | antibacterial activity against MDR E. coli in human serum detected by an inhibition assay (MDR E. coli [2]; incubation in human serum 4 h): 0.78 | antibacterial activity against MDR E. coli in human serum detected by an inhibition assay (MDR E. coli [2]; incubation in human serum 8 h): 0 | therapeutic efficacy, survival, single-animal event (MDR E. coli [3]; event at day 2): 1 | therapeutic efficacy, survival, single-animal event (MDR E. coli [3]; event at day 4): 1 | therapeutic efficacy, survival, single-animal event (MDR E. coli [3]; event at day 6): 1 | IAP levels in mice (LPS; 12 h): 684.97 | IAP levels in mice (LPS; 24 h): 544.938 | number of counted infiltrated inflammatory cells (MDR E. coli CVCC195 [4]; 12 h): 32.847 | number of counted infiltrated inflammatory cells (MDR E. coli CVCC195 [4]; 24 h): 26.4133 | hemolysis against mouse red blood cells (mouse red blood cells; 128 μM): 0% | Hemolysis (mouse red blood cells; [6]): -0.1237% | Hemolysis (mouse red blood cells; [7]): 0.165% | Hemolysis (mouse red blood cells; [8]): -0.1856% | Hemolysis (mouse red blood cells; [9]): -0.6393% | Hemolysis (mouse red blood cells; [10]): 0.04126% | Hemolysis (mouse red blood cells; [11]): -0.3506% | Hemolysis (mouse red blood cells; [12]): -0.6805% | Hemolysis (mouse red blood cells; [13]): -1.031% | Hemolysis (mouse red blood cells; low concentration (0 ~ 32 μM)): no hemolysis

CSCC[C@H](NC(=O)[C@H](CCCNC(=N)N)NC(=O)[C@H](Cc1c[nH]c2ccccc12)NC(=O)[C@H](C)NC(=O)[C@H](Cc1c[nH]c2ccccc12)NC(=O)[C@H](CCCNC(=N)N)NC(=O)[C@H](Cc1c[nH]c2ccccc12)NC(=O)[C@H](C)NC(=O)[C@H](CCCCN)NC(=O)[C@H](Cc1ccccc1)NC(=O)[C@H](CCCNC(=N)N)NC(=O)[C@H](CCCNC(=N)N)NC(=O)[C@H](CCCCN)NC(=O)[C@H](CCCNC(=N)N)NC(=O)[C@H](CCCCN)NC(=O)[C@H](Cc1ccccc1)NC(=O)[C@H](Cc1ccccc1)NC(=O)[C@H](CO)NC(=O)[C@H](C)NC(=O)[C@H](CCCNC(=N)N)NC(=O)[C@@H](NC(=O)[C@H](CCCCN)NC(=O)[C@H](Cc1c[nH]c2ccccc12)NC(=O)[C@H](CCCNC(=N)N)NC(=O)CNC(=O)[C@H](CCC(N)=O)NC(=O)[C@@H](NC(=O)[C@@H](N)CCCNC(=N)N)C(C)C)C(C)C)C(=O)N[C@@H](CCCCN)C(=O)N[C@@H](CCCCN)C(=O)N[C@@H](CC(C)C)C(=O)N[C@@H](C)C(=O)N[C@@H](C)C(=O)N1CCC[C@H]1C(=O)N[C@@H](CO)C(=O)O [R7] (H-RVQGRWKVRASFFKRKRRFKAWRWAWRMKKLAAPS-OH)
MBC (S. typhimurium CVCC533): 2.26 µM (≈ 10.1 µg/mL) | MIC (S. typhimurium CVCC533): 1.13 µM (≈ 5.06 µg/mL) | mouse survival at 7 days (MDR E. coli CVCC195 [1]): 100% | antibacterial activity against MDR E. coli in human serum detected by an inhibition assay (MDR E. coli [2]; incubation in human serum 0 h): 0.8933 | antibacterial activity against MDR E. coli in human serum detected by an inhibition assay (MDR E. coli [2]; [5]): 0.91 | antibacterial activity against MDR E. coli in human serum detected by an inhibition assay (MDR E. coli [2]; incubation in human serum 1 h): 0.91 | antibacterial activity against MDR E. coli in human serum detected by an inhibition assay (MDR E. coli [2]; incubation in human serum 2 h): 0.8967 | antibacterial activity against MDR E. coli in human serum detected by an inhibition assay (MDR E. coli [2]; incubation in human serum 4 h): 0.9033 | antibacterial activity against MDR E. coli in human serum detected by an inhibition assay (MDR E. coli [2]; incubation in human serum 8 h): 0.8967 | mouse survival, therapeutic treatment (MDR E. coli [3]; MDR E. coli at LD100 i.p., then 7 μmol/kg R7 at 0.5 h and 8 h, recorded 7 d): ≤ 20% | therapeutic efficacy, survival, single-animal event (MDR E. coli [3]; event at day 1): 1 | therapeutic efficacy, survival, single-animal event (MDR E. coli [3]; event at day 2): 1 | therapeutic efficacy, survival, single-animal event (MDR E. coli [3]; event at day 3): 1 | therapeutic efficacy, survival, single-animal event (MDR E. coli [3]; event at day 5): 1 | effect on IAP activity compared to the LPS group (LPS; 12 h after LPS challenge): significantly up-regulated | effect on IAP activity compared to the LPS group (LPS; 24 h after LPS challenge): no significant changes | IAP levels in mice (LPS; 12 h): 1301.32 | IAP levels in mice (LPS; 24 h): 927.606 | number of counted infiltrated inflammatory cells (MDR E. coli CVCC195 [4]; 12 h): 14.3787 | number of counted infiltrated inflammatory cells (MDR E. coli CVCC195 [4]; 24 h): 11.7743 | Hemolysis (mouse red blood cells; [6]): -0.4331% | Hemolysis (mouse red blood cells; [7]): -0.2475% | Hemolysis (mouse red blood cells; [8]): -0.2475% | Hemolysis (mouse red blood cells; [9]): -0.1031% | Hemolysis (mouse red blood cells; [10]): 0.495% | Hemolysis (mouse red blood cells; [11]): 2.846% | Hemolysis (mouse red blood cells; [12]): 6.991% | Hemolysis (mouse red blood cells; [13]): 10.9301% | Hemolysis (mouse red blood cells; low concentration (0 ~ 32 μM)): no hemolysis

From paper PMC10654507, “A cleavable chimeric peptide with targeting and killing domains enhances LPS neutralization and antibacterial properties against multi-drug resistant E. coli” (Communications Biology, 2023)
